Measurements from patent US20240287052A1, “NOVEL OXAZOLE DERIVATIVE AND PHARMACEUTICAL COMPOSITION FOR PREVENTING OR TREATING ALLERGIC DISEASES COMPRISING THE SAME” (AZCURIS CO., LTD., priority 2021, published 2024).
Where two headings read alike, the source gives them in different places.

Target: T1, IL33 and ST2 binding (Homo sapiens, UniProt O95760)
T1 sequence (O95760 112-270 limits assumed): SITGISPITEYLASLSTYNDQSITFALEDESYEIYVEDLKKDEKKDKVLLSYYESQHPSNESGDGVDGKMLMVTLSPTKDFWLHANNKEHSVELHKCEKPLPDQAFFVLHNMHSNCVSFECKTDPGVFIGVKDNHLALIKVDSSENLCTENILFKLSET
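Further: plate ELISA with coated Flag-tagged human IL-33 and His-tagged human ST2, bound ST2 detected by anti-His HRP and TMB absorbance at 450 nm, 2 h compound incubation.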

Experimental: 100 nM of Flag tagged IL-33 human recombinant protein was prepared in 1× coating buffer (Biolegend) and placed in a 96 well microplate (Coming) using a Multichannel pipette (Gilson) and coated for at least 12 hours at 4° C.
After washing three times with PBST (1×PBS (Welgene), 1% Tween 20 (sigma)), it was reacted with 1% BSA (Bovogen) blocking buffer for 1 hour at room temperature.
Samples containing 200 nM of His-tagged ST2 human recombinant protein and 60 μM or 200 μM Example synthetic compounds were prepared, added in equal volumes, and reacted for at least 2 hours at room temperature.
After washing three times with PBST (1×PBS (Welgene), 1% Tween 20 (sigma)), anti-His HRP (BioLegend) antibody was diluted 5000:1 and reacted for at least 1 hour at room temperature.
After washing three times with PBST (1×PBS (Welgene), 1% Tween 20 (sigma)), TMB substrate solution (Thermo) was added and reacted for more than 5 minutes. The reaction was stopped by adding 1 N HCl (Samchun) and the absorbance value was obtained at 450 nm after orbital shaking for 5 s with a Microplate reader (Tecan, Spark®).
The results derived from the program linked to the microplate reader were analyzed using an Excel program. IL33-ST2 binding rate (binding %) was calculated by averaging the three values obtained in triplicate, subtracting the positive control value, and converting the negative control value to 100%. The inhibition % value of each compound was obtained by subtracting the IL33-ST2 binding % from 100%, and the error range of triplicate was also obtained and reflected in the inhibition graph of the compound.

| Compound | inhibition (30 µM) | inhibition (100 µM) |
| --- | --- | --- |
| CCOC(=O)c1nc(-c2ccc(F)cc2)oc1-c1ccc([N+](=O)[O-])cc1 [Compound 69, Ethyl 2-(4-fluorophenyl)-5-(4-nitrophenyl)oxazole-4-carboxylate] | 32% | 48% |
| CCN(CC)CCNC(=O)c1nc(-c2ccc(C(C)(C)C)cc2)oc1-c1ccccc1 [Compound 267, 2-(4-(tert-butyl)phenyl)-N-(2-(diethylamino)ethyl)-5-phenyloxazole-4-carboxamide] | 23% | 29% |
| COc1cccc(-c2nc(C(=O)NCCN3CCN(C)CC3)c(-c3ccccc3[N+](=O)[O-])o2)c1 [Compound 211, 2-(3-methoxyphenyl)-N-(2-(4-methylpiperazin-1-yl)ethyl)-5-(2-nitrophenyl)oxazole-4-carboxamide] | 13% | 20% |
| CCOC(=O)c1nc(-c2ccc(Cl)cc2)oc1-c1ccccc1[N+](=O)[O-] [Compound 78, Ethyl 2-(4-chlorophenyl)-5-(2-nitrophenyl)oxazole-4-carboxylate] | 23% | 68% |
| CC(C)N(CCN1CCN(C(=O)c2nc(-c3ccc(C(F)(F)F)cc3)oc2-c2ccccc2[N+](=O)[O-])CC1)C(C)C [Compound 167, (4-(2-(Diisopropylamino)ethyl)piperazin-1-yl)(5-(2-nitrophenyl)-2-(4-(trifluoromethyl)phenyl)oxazol-4-yl)methanone] | -24% | -9% |
| O=C(NCCN1CCCC1)c1nc(-c2ccc(C(F)(F)F)cc2)oc1-c1ccccc1[N+](=O)[O-] [Compound 139, 5-(2-Nitrophenyl)-N-(2-(pyrrolidin-1-yl)ethyl)-2-(4-(trifluoromethyl)phenyl)oxazole-4-carboxamide] | 4% | 13% |
| O=C(NCCN1CCCCC1)c1nc(-c2ccc(C(F)(F)F)cc2)oc1-c1ccccc1[N+](=O)[O-] [Compound 173, 5-(2-Nitrophenyl)-N-(2-(piperidin-1-yl)ethyl)-2-(4-(trifluoromethyl)phenyl)oxazole-4-carboxamide] | 54% | 60% |
| CCOC(=O)c1nc(-c2ccc(C(F)(F)F)cc2)oc1-c1cccc(N)c1 [Compound 100, Ethyl 5-(3-aminophenyl)-2-(4-(trifluoromethyl)phenyl)oxazole-4-carboxylate] | 8% | 5% |
| O=C(NCc1cccnc1)c1nc(-c2ccc(C(F)(F)F)cc2)oc1-c1ccccc1[N+](=O)[O-] [Compound 142, 5-(2-Nitrophenyl)-N-(pyridin-3-ylmethyl)-2-(4-(trifluoromethyl)phenyl)oxazole-4-carboxamide] | 6% | 8% |
| CN1CCN(CCNC(=O)c2nc(-c3ccc(Cl)cc3)oc2-c2ccccc2[N+](=O)[O-])CC1 [Compound 247, 2-(4-Chlorophenyl)-N-(2-(4-methylpiperazin-1-yl)ethyl)-5-(2-nitrophenyl)oxazole-4-carboxamide] | 8% | 32% |
| CN(C)CCNC(=O)c1nc(-c2ccc(-c3ccccc3)cc2)oc1-c1ccccc1 [Compound 253, 2-([1,1′-Biphenyl]-4-yl)-N-(2-(dimethylamino)ethyl)-5-phenyloxazole-4-carboxamide] | 11% | 60% |
| CCOC(=O)c1nc(-c2ccc(C(F)(F)F)cc2)oc1-c1cccc(NC(C)=O)c1 [Compound 106, Ethyl 5-(3-acetamidophenyl)-2-(4-(trifluoromethyl)phenyl)oxazole-4-carboxylate] | -20% | -2% |
| CN(C)CCNC(=O)c1coc(-c2ccc(C(F)(F)F)cc2)n1 [Compound 114, N-(2-(dimethylamino)ethyl)-2-(4-(trifluoromethyl)phenyl)oxazole-4-carboxamide] | 10% | 9% |
| CN1CCN(CCNC(=O)c2nc(-c3ccc(F)cc3)oc2-c2ccccc2[N+](=O)[O-])CC1 [Compound 227, 2-(4-Fluorophenyl)-N-(2-(4-methylpiperazin-1-yl)ethyl)-5-(2-nitrophenyl)oxazole-4-carboxamide] | -22% | -28% |
